{"source": "patent US20240358668A1", "about": "“METHODS AND CO[…] AM[…] CARD[…] USING (R)-2-AMINO-3-PH[…]” (AXSOME THERAPEUTICS, INC., priority 2021, published 2024)", "origin": "cited, not measured here", "conditions": "prescribing information; or potentially higher; cited from earlier work"}
{"smiles": "COC(=O)[C@H](c1ccccc1)[C@H]1CCCCN1", "note": "[Focalin, dexmethylphenidate]", "values": [{"measurement": "increase in blood pressure", "value": "2-4 mm Hg"}]}
